In general, IC50 refers to the concentration that gives 50% inhibition.

Like-named read-outs stand apart in the source and are kept apart here.

This note sets out measurements from patent publication US11124509B2, “Tri-substituted imidazoles for the inhibition of TGF beta and methods of treatment” (CLAVIUS PHARMACEUTICALS, LLC, priority 2017, dated 2021).

One assay deals with TGFBR1 (ALK5) (Homo sapiens (Human), UniProt P36897). The experiment in a line: LanthaScreen Eu Kinase Binding Assay TGFBR1 (ALK5) (ThermoFisher SelectScreen). The conditions noted are these: read-out: TβRI (ALK5) Binding IC50. The procedure: (§1) Exemplified compounds were confirmed to inhibit ALK5 activity in enzyme and cellular assays in the following assay systems conducted by ThermoFisher in Madison, Wis. according to their commercially available protocols.
Sequence of TGFBR1 (ALK5) (P36897 34-503): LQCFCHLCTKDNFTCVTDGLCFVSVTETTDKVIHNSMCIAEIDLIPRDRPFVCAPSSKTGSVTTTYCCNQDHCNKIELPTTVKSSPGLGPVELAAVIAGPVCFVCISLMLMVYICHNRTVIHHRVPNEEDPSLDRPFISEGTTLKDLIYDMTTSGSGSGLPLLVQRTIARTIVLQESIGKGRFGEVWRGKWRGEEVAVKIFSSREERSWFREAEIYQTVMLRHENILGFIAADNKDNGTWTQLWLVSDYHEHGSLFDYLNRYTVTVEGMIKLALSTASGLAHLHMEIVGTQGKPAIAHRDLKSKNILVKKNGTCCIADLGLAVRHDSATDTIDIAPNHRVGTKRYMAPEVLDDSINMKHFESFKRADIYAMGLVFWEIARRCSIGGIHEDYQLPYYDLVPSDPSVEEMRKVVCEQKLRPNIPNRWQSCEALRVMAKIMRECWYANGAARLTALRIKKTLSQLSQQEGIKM
ThermoFisher SelectScreen™ Biochemical Kinase Profiling Service, LanthaScreen™Eu Kinase Binding Assay TGFBR1 (ALK5)
Exemplified compounds were screened in 1% DMSO (final concentration) by 3-fold serial dilutions from 10,000 nM to 0.316 nM to produce an IC50 or at single concentrations of 10,000, 1000 and 100 nM according to the following protocol. To low volume, white 384-well plates (Greiner Cat #784207) add 160 nL 100× compound in 100% DMSO, 3.84 uL kinase buffer (50 mM HEPES, pH 7.5, 0.01% BRIJ-35, 10 mM MgCl2, 1 mM EGTA), 8 uL 2× kinase/antibody mixture in kinase buffer (final ALK5 concentration of 5 nM; final Eu-anti-GST antibody concentration of 2 nM), 4 uL 4× Tracer #178 in kinase buffer (final concentration of 5 nM). Gently shake the plates for 30 seconds and incubate at room temperature for 1 hour before reading fluorescence on a plate reader. Percent inhibition was determined compared to DMSO only control (maximal ALK5 tracer binding) and sigmoidal dose response curve fit yielded IC50 values as indicated in Table 2.
(In general: Time-resolved FRET reads energy transfer from a long-lived donor to a nearby acceptor.)

Assay [1] concerns TGF-beta 1 stimulated SBE-b1a HEK 293T cells. The assay is described as follows: GeneBLAzer beta-lactamase reporter, TGF-beta 1 stimulated SBE-b1a HEK 293T cell-based assay (ThermoFisher SelectScreen). As to conditions: Homo sapiens, HEK-293T; TGF-beta 1 0.03 nM, 5 hours; inhibitor 10,000 nM to 0.316 nM; sigmoidal dose response curve fit; read-out: Cells (SBE_HEK293T) IC50. The procedure:
as §1
ThermoFisher SelectScreen™ Cell-Based Pathway Profiling Service GeneBLAzer Beta-Lactamase (b1a) Reporter Technology—TGF-Beta 1 Stimulated SBE-b1a HEK 293T Cell-Based Assay
SBE-b1a HEK 293T cells were thawed and re-suspended in Assay Media (OPTI-MEM, 0.5% dialyzed FBS, 0.1 mM NEAA, 1 mM Sodium Pyruvate, 100 U/mL/100 μg/mL Pen/Strep) to a concentration of 625,000 cells/mL. 32 μL of cell suspension (20,000 cells) was added to each well of a 384-well Poly-D-Lysine assay plate. Cells in Assay Media were incubated for 16-24 hours in the plate at 37° C./5% CO2 in a humidified incubator. 4 μL of a 10× serial dilution of ALK5 inhibitors (10x=100,000-3.16 nM) was added to appropriate wells of the plate and pre-incubated at 37° C./5% CO2 in a humidified incubator with cells for 30 minutes. Final concentration of inhibitor ranged from 10,000 nM to 0.316 nM. 4 μL of 10× TGF-beta 1 (final concentration of 0.03 nM) was added to wells containing the inhibitors. The plate was incubated for 5 hours at 37° C./5% CO2 in a humidified incubator. 8 μL of 1 μM Substrate Loading Solution was added to each well and the plate was incubated for 2 hours at room temperature before being read on a fluorescence plate reader. Percent inhibition was determined compared to DMSO only control (maximal TGF-beta 1 stimulation) and sigmoidal dose response curve fit yielded IC50 values as indicated in Table 2.

The mark [2] stands for this setting: 3-fold serial dilutions 10,000 nM to 0.316 nM, ALK5 5 nM, Tracer #178 5 nM, sigmoidal dose response curve fit.
Where [3] appears, read: compounds marked with an asterisk: evaluated at three concentrations, IC50 depicted as less than the lowest concentration producing >50% inhibition.

In the case of `Cn1ccc(-c2nc(-c3ccc(C(N)=O)cc3)[nH]c2-c2ccc3ncsc3c2)n1` [Compound 37], the IC50 on TGFBR1 (ALK5) (setting [2]) was found to be 5.6 nM; in assay [1] it was 53.2 nM.

For the compound `CC(C)n1ccc(-c2nc(CNc3cccc(C#N)c3)[nH]c2-c2ccc3ncc(C(N)=O)n3n2)n1` [Compound 38], the values for the IC50 (on TGFBR1 (ALK5) (setting [3]); in assay [1]) were less than 100 nM and 3180 nM, respectively.

Turning to `CC(C)n1ccc(-c2nc(CNc3cccc(-n4cccn4)c3)[nH]c2-c2ccc3nccnc3c2)n1` [Compound 40], the results for the IC50 (at TGFBR1 (ALK5) (setting [3]); in assay [1]) were less than 100 nM and 1050 nM, respectively.

In the case of `CC(C)n1ccc(-c2nc(CNc3cccc(C#N)c3)[nH]c2-c2ccc3nccnc3c2)n1` [Compound 41], the IC50 turned out to be 33 nM on TGFBR1 (ALK5) (setting [2]) and 77.5 nM in assay [1].

For `Cn1ccc(-c2nc(-c3ccc(C(N)=O)cc3)[nH]c2-c2ccc3nccnc3c2)n1` [Compound 43], the IC50 on TGFBR1 (ALK5) (setting [3]) is less than 100 nM; in assay [1], 485 nM.

Consider `Cc1nc(-c2ccn(C)n2)c(-c2ccc3ncsc3c2)[nH]1` [Compound 44, 6-(2-methyl-4-(1-methyl-1H-pyrazol-3-yl)-1H-imidazol-5-yl)benzo[d]thiazole], for which the IC50 turned out to be 6.66 nM on TGFBR1 (ALK5) (setting [2]) and 37.4 nM in assay [1].

For `CC(C)n1ccc(-c2nc(CNc3cc(F)ccc3F)[nH]c2-c2ccc3nccnc3c2)n1` [Compound 45], the IC50 on TGFBR1 (ALK5) (setting [3]) was less than 100 nM; in assay [1], 323 nM.

Consider `Fc1cccc(NCc2nc(-c3ccn(C(F)F)n3)c(-c3ccc4nccnc4c3)[nH]2)c1` [Compound 46], for which the IC50 at TGFBR1 (ALK5) (setting [2]) was 5.6 nM; in assay [1], 11.6 nM.

On to `N#Cc1cccc(NCc2nc(-c3ccn(C(F)F)n3)c(-c3ccc4nccnc4c3)[nH]2)c1` [Compound 47], for which the IC50 on TGFBR1 (ALK5) (setting [2]) was determined as 6.6 nM; in assay [1], 19.5 nM.

On to `CC(C)n1ccc(-c2nc(CNc3cccc(Cl)c3)[nH]c2-c2ccc3nccnc3c2)n1` [Compound 54], for which the IC50 amounted to 31.2 nM on TGFBR1 (ALK5) (setting [2]) and 211 nM in assay [1].

As for `Cn1ccc(-c2nc[nH]c2-c2ccc3ncsc3c2)n1` [Compound 55], the IC50 on TGFBR1 (ALK5) (setting [2]) worked out at 4.71 nM; in assay [1], 132 nM.

Consider `Cn1ccc(-c2nc[nH]c2-c2ccc3nccnc3c2)n1` [Compound 56], for which the values for the IC50 (on TGFBR1 (ALK5) (setting [2]); in assay [1]) were 43.6 nM and 1050 nM, respectively.

Regarding `CC(C)n1ccc(-c2nc(CNc3ccccc3F)[nH]c2-c2ccc3nccnc3c2)n1` [Compound 57], the IC50 on TGFBR1 (ALK5) (setting [2]) was 128 nM; in assay [1] it was 2190 nM.

Take `CC(C)n1ccc(-c2nc(CNc3cc(F)cc(C(N)=O)c3)[nH]c2-c2ccc3nccnc3c2)n1` [Compound 58]: the IC50 at TGFBR1 (ALK5) (setting [2]) turned out to be 78 nM; in assay [1], 3920 nM.

`NC(=O)c1ccc(-c2nc(-c3ccn(C(F)F)n3)c(-c3ccc4ncsc4c3)[nH]2)cc1` [Compound 61]: the IC50 on TGFBR1 (ALK5) (setting [2]) amounted to 7.55 nM; in assay [1], 65.3 nM.

In the case of `Cn1ccc(-c2nc(C(N)=O)[nH]c2-c2ccc3ncsc3c2)n1` [Compound 62, 5-(benzo[d]thiazol-6-yl)-4-(1-methyl-1H-pyrazol-3-yl)-1H-imidazole-2-carboxamide], the IC50 on TGFBR1 (ALK5) (setting [2]) amounted to 45.8 nM; in assay [1], 1130 nM.

As to `Cc1cc(C(N)=O)cc(C)c1-c1nc(-c2ccn(C)n2)c(-c2ccc3ncsc3c2)[nH]1` [Compound 63], the IC50 at TGFBR1 (ALK5) (setting [2]) worked out at 399 nM; in assay [1], 3030 nM.

With `CNC(=O)c1ccc(-c2nc(-c3ccn(C)n3)c(-c3ccc4ncsc4c3)[nH]2)cc1` [Compound 64, 4-(5-(benzo[d]thiazol-6-yl)-4-(1-methyl-1H-pyrazol-3-yl)-1H-imidazol-2-yl)-N-methylbenzamide], the IC50 at TGFBR1 (ALK5) (setting [2]) was determined as 44.6 nM; in assay [1], 632 nM.

On to `CCNC(=O)c1ccc(-c2nc(-c3ccn(C)n3)c(-c3ccc4ncsc4c3)[nH]2)cc1` [Compound 65], for which the IC50 at TGFBR1 (ALK5) (setting [2]) was found to be 46.2 nM; in assay [1], 654 nM.

Regarding `CN(C)C(=O)c1ccc(-c2nc(-c3ccn(C)n3)c(-c3ccc4ncsc4c3)[nH]2)cc1` [Compound 66], the concentration for half-maximal inhibition (IC50) at TGFBR1 (ALK5) (setting [2]) amounted to 285 nM; in assay [1], 1360 nM.

As for `Fc1cc(F)cc(NCc2nc(-c3ccn(C4CC4)n3)c(-c3ccc4nccnc4c3)[nH]2)c1` [Compound 68], the IC50 on TGFBR1 (ALK5) (setting [2]) was 1.2 nM; in assay [1], 10.9 nM.
